Species: Rattus norvegicus
Test: Open TG-GATES - Regimen: Single
Type: toxicity, organism-based, Sprague-Dawley
Parameters: regimen Single, gender Male, age 6 weeks
Details: in vivo, po, 25 mg/kg, route gavage, dose level Low; for APTT / Bas / Eos / Fbg / Hb / Ht / Lym / MCH / MCHC / MCV / Mono / Neu / PT / Plat / RBC / Ret / WBC: tissue Blood; for KIDNEY_L / KIDNEY_R / KIDNEY_TOTAL: tissue Kidney; for LIVER: tissue Liver; for A/G / ALP / ALT / AST / BUN / CRE / Ca / Cl / DBIL / GLC / IP / K / LDH / Na / PL / RALB / TBIL / TC / TG / TP / gamma-GTP: tissue Plasma

With `CCSCC[C@H](N)C(=O)O` [ETHIONINE] the TERMINAL_BW (3 h) was 217.8 g, the APTT (3 h) was 19.1 s and the Bas (3 h) was 0%. The Eos (3 h) was 1.2%, the Fbg (3 h) was 211.4 mg/dL and the Hb (3 h) was 13.1 g/dL. The Ht (3 h) was 38.9%, the Lym (3 h) was 83.4% and the MCH (3 h) was 21.1 pg. For the same compound, the MCHC (3 h) was 33.5%, the MCV (3 h) was 62.9 fL and the Mono (3 h) was 2.4%. It also gave a Neu (3 h) of 12.2%, a PT (3 h) of 12.4 s and a Plat (3 h) of 120.2 x10_4/uL. It also gave an RBC (3 h) of 619.2 x10_4/ul, a Ret (3 h) of 6.9% and a WBC (3 h) of 89.8 x10_2/uL. For the same compound, the KIDNEY_L (3 h) was 0.9 g, the KIDNEY_R (3 h) was 0.9 g and the KIDNEY_TOTAL (3 h) was 1.9 g. It also gave an LIVER (3 h) of 10.1 g, an A/G (3 h) of 1.6 and an ALP (3 h) of 855.8 IU/L. For the same compound, the ALT (3 h) was 33 IU/L, the AST (3 h) was 66 IU/L and the BUN (3 h) was 11.2 mg/dL. For the same compound, the CRE (3 h) was 0.4 mg/dL, the Ca (3 h) was 10.5 mg/dL and the Cl (3 h) was 101.8 meq/L. It also gave a DBIL (3 h) of 0.056 mg/dL, a GLC (3 h) of 202.4 mg/dL and an IP (3 h) of 9.7 mg/dL. The K (3 h) was 4 meq/L, the LDH (3 h) was 212.6 IU/L and the Na (3 h) was 140.4 meq/L. It also gave a PL (3 h) of 138.4 mg/dL, an RALB (3 h) of 3.2 g/dL and a TBIL (3 h) of 0.1 mg/dL. For the same compound, the TC (3 h) was 77.8 mg/dL, the TG (3 h) was 61.2 mg/dL and the TP (3 h) was 5.2 g/dL. It also gave a gamma-GTP (3 h) of 1 IU/L, a TERMINAL_BW (6 h) of 214.9 g and an APTT (6 h) of 19.4 s. The Bas (6 h) was 0%, the Eos (6 h) was 1% and the Fbg (6 h) was 210.6 mg/dL. It also gave a Hb (6 h) of 13.3 g/dL, a Ht (6 h) of 39.1% and a Lym (6 h) of 82%. The MCH (6 h) was 21.4 pg, the MCHC (6 h) was 33.9% and the MCV (6 h) was 62.9 fL. The Mono (6 h) was 2.4%, the Neu (6 h) was 14% and the PT (6 h) was 12.7 s. The Plat (6 h) was 118.7 x10_4/uL, the RBC (6 h) was 620.4 x10_4/ul and the Ret (6 h) was 6.7%. The WBC (6 h) was 82.3 x10_2/uL, the KIDNEY_L (6 h) was 1 g and the KIDNEY_R (6 h) was 1 g. The KIDNEY_TOTAL (6 h) was 2 g, the LIVER (6 h) was 9.3 g and the A/G (6 h) was 1.6. The ALP (6 h) was 885.2 IU/L, the ALT (6 h) was 31.4 IU/L and the AST (6 h) was 63.8 IU/L. For the same compound, the BUN (6 h) was 9.4 mg/dL, the CRE (6 h) was 0.4 mg/dL and the Ca (6 h) was 10.2 mg/dL. For the same compound, the Cl (6 h) was 102.8 meq/L, the DBIL (6 h) was 0.058 mg/dL and the GLC (6 h) was 191.2 mg/dL. The IP (6 h) was 9.5 mg/dL, the K (6 h) was 3.8 meq/L and the LDH (6 h) was 224.2 IU/L. The Na (6 h) was 139.6 meq/L, the PL (6 h) was 126.8 mg/dL and the RALB (6 h) was 3.2 g/dL. It also gave a TBIL (6 h) of 0.1 mg/dL, a TC (6 h) of 66.4 mg/dL and a TG (6 h) of 52.6 mg/dL. It also gave a TP (6 h) of 5.2 g/dL, a gamma-GTP (6 h) of 1.6 IU/L and a TERMINAL_BW (9 h) of 212.9 g. It also gave an APTT (9 h) of 18.9 s, a Bas (9 h) of 0% and an Eos (9 h) of 1%. The Fbg (9 h) was 228.2 mg/dL, the Hb (9 h) was 13.4 g/dL and the Ht (9 h) was 39.3%. It also gave a Lym (9 h) of 71%, an MCH (9 h) of 21.3 pg and an MCHC (9 h) of 34%. For the same compound, the MCV (9 h) was 62.6 fL, the Mono (9 h) was 2.2% and the Neu (9 h) was 25.4%. The PT (9 h) was 12.6 s, the Plat (9 h) was 125.9 x10_4/uL and the RBC (9 h) was 629.2 x10_4/ul. For the same compound, the Ret (9 h) was 6.8%, the WBC (9 h) was 95.5 x10_2/uL and the KIDNEY_L (9 h) was 0.9 g. The KIDNEY_R (9 h) was 0.9 g, the KIDNEY_TOTAL (9 h) was 1.8 g and the LIVER (9 h) was 9 g. For the same compound, the A/G (9 h) was 1.6, the ALP (9 h) was 842.8 IU/L and the ALT (9 h) was 33.2 IU/L. The AST (9 h) was 69.6 IU/L, the BUN (9 h) was 11.2 mg/dL and the CRE (9 h) was 0.3 mg/dL. It also gave a Ca (9 h) of 10.5 mg/dL, a Cl (9 h) of 101.8 meq/L and a DBIL (9 h) of 0.074 mg/dL. The GLC (9 h) was 197 mg/dL, the IP (9 h) was 9.6 mg/dL and the K (9 h) was 3.7 meq/L. For the same compound, the LDH (9 h) was 200.6 IU/L, the Na (9 h) was 141 meq/L and the PL (9 h) was 123.4 mg/dL. The RALB (9 h) was 3.4 g/dL, the TBIL (9 h) was 0.1 mg/dL and the TC (9 h) was 63.6 mg/dL. It also gave a TG (9 h) of 75.8 mg/dL, a TP (9 h) of 5.6 g/dL and a gamma-GTP (9 h) of 0.8 IU/L. The TERMINAL_BW (24 h) was 231.8 g, the APTT (24 h) was 20 s and the Bas (24 h) was 0%. It also gave an Eos (24 h) of 1%, a Fbg (24 h) of 234 mg/dL and a Hb (24 h) of 13.3 g/dL. It also gave a Ht (24 h) of 38.9%, a Lym (24 h) of 80% and an MCH (24 h) of 21.7 pg. It also gave an MCHC (24 h) of 34.2%, an MCV (24 h) of 63.6 fL and a Mono (24 h) of 3%. For the same compound, the Neu (24 h) was 15.4%, the PT (24 h) was 12.7 s and the Plat (24 h) was 126.9 x10_4/uL. The RBC (24 h) was 612 x10_4/ul, the Ret (24 h) was 6.8% and the WBC (24 h) was 103.2 x10_2/uL. The KIDNEY_L (24 h) was 1 g, the KIDNEY_R (24 h) was 1 g and the KIDNEY_TOTAL (24 h) was 2 g. The LIVER (24 h) was 11.1 g, the A/G (24 h) was 1.6 and the ALP (24 h) was 978 IU/L. The ALT (24 h) was 34.2 IU/L, the AST (24 h) was 68 IU/L and the BUN (24 h) was 14.6 mg/dL. The CRE (24 h) was 0.4 mg/dL, the Ca (24 h) was 10.6 mg/dL and the Cl (24 h) was 102.4 meq/L. It also gave a DBIL (24 h) of 0.098 mg/dL, a GLC (24 h) of 209 mg/dL and an IP (24 h) of 8.3 mg/dL. The K (24 h) was 4 meq/L, the LDH (24 h) was 230.4 IU/L and the Na (24 h) was 140 meq/L. The PL (24 h) was 142.8 mg/dL, the RALB (24 h) was 3.5 g/dL and the TBIL (24 h) was 0.1 mg/dL. The TC (24 h) was 67.8 mg/dL, the TG (24 h) was 122.6 mg/dL and the TP (24 h) was 5.6 g/dL. It also gave a gamma-GTP (24 h) of 1.4 IU/L.
